The text below walks through data of patent publication US20050250836A1, “Inhibitors of checkpoint kinases (Wee1 and Chk1)” (Pfizer Inc, priority 2004, published 2005).

Broadly, the melting point is the temperature of the solid-liquid transition. The molecule `CN1CCN(CCCn2cc(Br)c3c4c(c(-c5ccccc5Cl)cc32)C(=O)NC4=O)CC1` [Example 138, 8-Bromo-4-(2-chlorophenyl)-6-[3-(4-methylpiperazin-1-yl)-propyl]-6H-2,6-diaza-as-indacene-1,3-dione] registered a melting point of 150 to 152 °C. The figure for `O=C1NC(=O)c2c1c(-c1ccccc1Cl)cc1c2c(Br)cn1CCCN1CCOCC1` [Example 139, 8-Bromo-4-(2-chlorophenyl)-6-(3-morpholin-4-ylpropyl)-6H-2,6-diaza-as-indacene-1,3-dione] is 117 to 120 °C; for `CN(C)CCCn1cc(Br)c2c3c(c(-c4ccccc4Cl)cc21)C(=O)NC3=O` [Example 140, 8-Bromo-4-(2-chlorophenyl)-6-(3-dimethylaminopropyl)-6H-2,6-diaza-as-indacene-1,3-dione] it is 160 to 162 °C.

Molecule `CCCN(CCC)CCCn1cc(Br)c2c3c(c(-c4ccccc4Cl)cc21)C(=O)NC3=O` [Example 141, 8-Bromo-4-(2-chlorophenyl)-6-(3-dipropylaminopropyl)-6H-2,6-diaza-as-indacene-1,3-dione] returned a melting point of 173 to 175 °C.

Molecule `O=C1NC(=O)c2c1c(-c1ccccc1Cl)cc1c2ccn1CCN1CCCC1` [Example 142, 4-(2-Chlorophenyl)-6-(2-pyrrolidin-1-ylethyl)-6H-2,6-diaza-as-indacene-1,3-dione] showed a melting point of 208 to 209 °C. The value for `C=Cc1cn(C)c2cc(-c3ccccc3Cl)c3c(c12)C(=O)NC3=O` [Example 145, 4-(2-Chlorophenyl)-6-methyl-8-vinyl-6H-2,6-diaza-as-indacene-1,3-dione] was 200 to 205 °C; that for `Cn1cc(C(O)CO)c2c3c(c(-c4ccccc4Cl)cc21)C(=O)NC3=O` (stereo not shown) [Example 146, 4-(2-Chlorophenyl)-8-(1,2-dihydroxyethyl)-6-methyl-6H-2,6-diaza-as-indacene-1,3-dione] was 179 to 183 °C; that for `Cn1cc(CCO)c2c3c(c(-c4ccccc4Cl)cc21)C(=O)NC3=O` [Example 147, 4-(2-Chlorophenyl)-8-(2-hydroxyethyl)-6-methyl-6H-2,6-diaza-as-indacene-1,3-dione] was 225 to 229 °C. As for `CCc1cn(C)c2cc(-c3ccccc3Cl)c3c(c12)C(=O)NC3=O` [Example 148, 4-(2-Chlorophenyl)-8-ethyl-6-methyl-6H-2,6-diaza-as-indacene-1,3-dione], the melting point fell in the range of 230 to 233 °C. The figure for `C#Cc1cn(C)c2cc(-c3ccccc3Cl)c3c(c12)C(=O)NC3=O` [Example 149, 4-(2-Chlorophenyl)-8-ethynyl-6-methyl-6H-2,6-diaza-as-indacene-1,3-dione] is 125 to 129 °C; for `COc1ccccc1-c1cc2c(c(C#CCO)cn2C)c2c1C(=O)NC2=O` [Example 150, 8-(3-Hydroxyprop-1-ynyl)-4-(2-methoxyphenyl)-6-methyl-6H-2,6-diaza-as-indacene-1,3-dione] it is 154 to 157 °C; for `Cn1cc(C#N)c2c3c(c(-c4ccccc4Cl)cc21)C(=O)NC3=O` [Example 151, 4-(2-Chlorophenyl)-6-methyl-1,3-dioxo-1,2,3,6-tetrahydro-2,6-diaza-as-indacene-8-carbonitrile] it is 160 to 163 °C. The figure for `O=C(O)CCn1cc(Br)c2c3c(c(-c4ccccc4Cl)cc21)C(=O)NC3=O` [Example 165, 3-[8-Bromo-4-(2-chlorophenyl)-1,3-dioxo-2,3-dihydro-1H-2,6-diaza-as-indacen-6-yl]propionic acid] is 182 to 186 °C.

For the molecule `Cn1cc(CN2CCCC2)c2c3c(c(-c4ccccc4Cl)cc21)C(=O)NC3=O` [Example 166, 4-(2-Chlorophenyl)-6-methyl-8-pyrrolidin-1-ylmethyl-6H-2,6-diaza-as-indacene-1,3-dione], the melting point is 160 to 165 °C (dec.). The value for `CN(C)Cc1cn(C)c2cc(-c3ccccc3Cl)c3c(c12)C(=O)NC3=O` [Example 167, 4-(2-Chlorophenyl)-8-dimethylaminomethyl-6-methyl-6H-2,6-diaza-as-indacene-1,3-dione] was 155 to 159 °C; that for `Cn1cc(CO)c2c3c(c(-c4ccccc4Cl)cc21)C(=O)NC3=O` [Example 168, 4-(2-chlorophenyl)-8-hydroxymethyl-6-methyl-6H-2,6-diaza-as-indacene-1,3-dione] was 270 to 274 °C.
